# Results taken from patent US20030166922A1, “Novel cephalosporin compounds and process for preparing the same” (priority 2000, published 2003).
# Key:
# Test in all cases: Minimum Inhibitory Concentration (MIC), agar dilution, standard strains
# [1] = system: Staphylococcus aureus giorgio; assay type: cell-based; details: for Minimum Inhibitory Concentration (MIC), S. aureus giorgio: Table 2, Mueller-Hinton agar, 37° C., 20 hours
# Description: (§1) Minimum Inhibitory Concentration (MIC)
# (§2) The effectiveness of the compound according to the present invention was determined by obtaining Minimum Inhibitory Concentration (MIC) of the compounds prepared by the above Examples (I-1 to I-33) and vancomycin, which is the known compound having a potent activity against gram-positive strains, as the control drug against the standard strains. Specifically, Minimum Inhibitory Concentration was obtained by diluting the test material with a double dilution method, dispersing them in Mueller-Hinton agar medium, inoculating each of the test strain having 10^7 cfu (colny forming unit) in an amount of 2:1 to the medium and then incubating them at 37° C. for 20 hours.
# [2] = system: E. faecalis L239; assay type: cell-based; details: Enterococcus faecalis, L239, 20 h, read-out: Minimum Inhibitory Concentration (MIC), E. faecalis L239
# Description: as §1, §2
# [3] = system: E. faecalis EFS004; assay type: cell-based; details: Table 2; Mueller-Hinton agar, 37° C., 20 hours
# Description: as §1, §2
# [4] = system: S. epidermidis R005; assay type: cell-based; details: for Minimum Inhibitory Concentration (MIC), S. epidermidis R005: Table 2, Mueller-Hinton agar, 37° C., 20 hours
# Description: as §1, §2
# [5] = system: S. aureus 77; assay type: cell-based, Staphylococcus aureus; details: for Minimum Inhibitory Concentration (MIC), S. aureus 77: Table 2, Mueller-Hinton agar, 37° C., 20 hours
# Description: as §1, §2
# [6] = system: S. aureus K311; assay type: cell-based, Staphylococcus aureus; details: Table 2; Mueller-Hinton agar, 37° C., 20 hours
# Description: as §1, §2
# [7] = system: S. aureus 241; assay type: cell-based, Staphylococcus aureus; details: Staphylococcus aureus, 241, 20 h, read-out: Minimum Inhibitory Concentration (MIC), S. aureus 241
# Description: as §1, §2
Structure (SMILES),"MIC ([1]; Staphylococcus aureus, 20 h, read-out: Minimum Inhibitory Concentration (MIC), Staphylococcus aureus giorgio)","Minimum Inhibitory Concentration (MIC), S. aureus giorgio [1]",MIC [2],"Minimum Inhibitory Concentration (MIC), E. faecalis EFS004 [3]","MIC ([4]; Staphylococcus epidermidis, R005, 20 h, read-out: Minimum Inhibitory Concentration (MIC), S. epidermidis R005)","Minimum Inhibitory Concentration (MIC), S. epidermidis R005 [4]","MIC ([5]; Staphylococcus aureus, 77, 20 h, read-out: Minimum Inhibitory Concentration (MIC), S. aureus 77)","Minimum Inhibitory Concentration (MIC), S. aureus 77 [5]","Minimum Inhibitory Concentration (MIC), S. aureus K311 [6]",MIC [7]
"CN[C@H](CC(C)C)C(=O)N[C@H]1C(=O)N[C@@H](CC(N)=O)C(=O)N[C@H]2C(=O)N[C@H]3C(=O)N[C@H](C(=O)N[C@H](C(=O)O)c4cc(O)cc(O)c4-c4cc3ccc4O)[C@H](O)c3ccc(c(Cl)c3)Oc3cc2cc(c3O[C@@H]2O[C@H](CO)[C@@H](O)[C@H](O)[C@H]2O[C@H]2C[C@](C)(N)[C@H](O)[C@H](C)O2)Oc2ccc(cc2Cl)[C@H]1O [Vancomycin, vancomycin, reference compound]",1 µg/mL,1 :g/ml,2 µg/mL,2 :g/ml,1 µg/mL,1 :g/ml,1 µg/mL,1 :g/ml,2 :g/ml,2 µg/mL
"C[n+]1c(SCSC2=C(C(=O)O)N3C(=O)[C@@H](NC(=O)CSc4cc(Cl)nc(Cl)c4)[C@H]3SC2)cc(N)nc1N [Example I-33, 2,4-diamino-6-[({[(6R,7R)-2-carboxy-7-({2-[(2,6-dichloro-4-pyridinyl)sulf-anyl]acetyl}amino)-8-oxo-5-thia-1-azabicyclo[4.2.0]oct-2-en-3-yl]sulfanyl}methyl)sulfan-yl]-1-methylp yrimidin-1-ium]",–,0.031 :g/ml,–,0.5 :g/ml,–,0.25 :g/ml,–,0.25 :g/ml,1 :g/ml,–
"Cn1c(N)n[n+]2c(SCSC3=C(C(=O)O)N4C(=O)[C@@H](NC(=O)CSc5cc(Cl)nc(Cl)c5)[C@H]4SC3)nc(N)cc12 [Example I-31, 2,7-diamino-5-[({[(6R,7R)-2-carboxy-7-({2-[(2,6-dichloro-4-pyridinyl)sulf-anyl]acetyl}amino)-8-oxo-5-thia-1-azabicyclo[4.2.0]oct-2-en-3-yl]sulfanyl}methyl)sulfan-yl]-1-methyl-1H-[1,2,4]triazolo[1,5-c]pyrimidin-4-ium]",–,0.031 :g/ml,–,0.5 :g/ml,–,0.25 :g/ml,–,0.25 :g/ml,0.5 :g/ml,–
"O=C(CSc1cc(Cl)nc(Cl)c1)N[C@@H]1C(=O)N2C(C(=O)O)=C(SCSc3nc(O)cc(NCCO)n3)CS[C@H]12 [Example I-32, (6R,7R)-7-({2-[(2,6-dichloro-4-pyridinyl)sulfanyl]acetyl}amino)-3-{[({4-hy-droxy-6-[(2-hydroxyethyl)amino]-2-pyrimidinyl}sulfanyl)methyl]sulfanyl}-8-oxo-5-thia-1-azabicyclo[4. 2.0]oct-2-ene-2-carboxylic acid]",–,0.13 :g/ml,–,1 :g/ml,–,1 :g/ml,–,0.1 :g/ml,1 :g/ml,–
